# From PubChem BioAssay AID1996
# Settings: buffer; pH 7.4; 200.0 µM
row,SMILES,solubility kinetic
1,COc1ccc(CCNC2CCc3ccccc3C2)cc1 (stereo unspecified),28.3 µg/mL
2,COc1ccc(OCCN2CCOCC2)cc1,30.9 µg/mL
3,O=C(Nc1cccc(F)c1)c1ccco1,26.7 µg/mL
4,CCNC(=S)N/N=C(\C)c1cccc(OC)c1,> 37.7 µg/mL
5,COc1ccc(OC(=O)NCCc2ccccc2)cc1,24.3 µg/mL
6,COc1cc(CNCc2ccncc2)cc(OC)c1OC.Cl,> 48.7 µg/mL
7,Cc1nn(-c2ccccc2)c2nc(N)c(C(N)=O)cc12,> 40.1 µg/mL
8,CCOC(=O)c1sc(SC)nc1N,22.2 µg/mL
9,O=C(O)c1cc([N+](=O)[O-])ccc1NCc1ccccc1Cl,45 µg/mL
10,O=C1OCCN/C1=C\C(=O)c1ccccc1,> 32.6 µg/mL
11,CC1CCCC(NC(=O)COC(=O)c2ccccc2[N+](=O)[O-])C1C (stereo unspecified),48.6 µg/mL
12,Cc1ccc(NC(=O)COC(=O)c2cccnc2)c(C)c1,> 42.6 µg/mL
13,CCc1nc2ccccc2n1CC(=O)Nc1cc(C)on1,> 42.6 µg/mL
14,COc1cc2ncnc(Nc3ccc4c(c3)OCO4)c2cc1OC,10.1 µg/mL
15,O=C(CN1CCN(Cc2ccccc2)CC1)NCCc1ccccc1,47.3 µg/mL
16,CCOC(=O)Cc1csc(NC(=O)CCc2ccccc2)n1,41 µg/mL
17,CSc1ccccc1NC(=O)COC(=O)c1cnc(C)cn1,> 47.6 µg/mL
18,CCOc1ccc2nc(SCC3CC3(Cl)Cl)[nH]c2c1 (stereo unspecified),29.4 µg/mL
19,CCCCC(=O)N1CCN(c2nc3ccc(F)cc3s2)CC1,44.2 µg/mL
20,Cc1ccccc1NC(=O)NC1CCCCCCC1,1.5 µg/mL
21,CCOC(=O)c1[nH]c2ccccc2c1NC(=O)NC(C)C,1.7 µg/mL

row,SMILES,solubility kinetic
1,O=S(=O)(c1ccc(Cl)cc1)N1CCCC(C(F)(F)F)C1 (stereo unspecified),1 µg/mL
2,Cc1ccc(C(=O)NS(=O)(=O)c2ccc(C)cc2)cc1,> 43.4 µg/mL
3,O=C(NCCSCc1ccc(Cl)cc1)c1cccs1,21.5 µg/mL
4,Cc1cccc(C(=O)OCC(=O)N2CC(=O)Nc3ccccc32)c1C,4.2 µg/mL
5,COc1nc(C)cc(C)c1S(=O)(=O)c1ccccc1C,4.8 µg/mL
6,Cc1ccc(NC(=O)C2CCCN(c3ncccn3)C2)cc1C (stereo unspecified),2.1 µg/mL
7,Cc1nc(N2CCOCC2)nc(N2CCC(C)CC2)c1[N+](=O)[O-],12.6 µg/mL
8,COc1ccccc1NC(=O)NNC(=O)CCN1CCOCC1,> 48.4 µg/mL
9,CC12CCC(C1)C(C)(C)C2NS(=O)(=O)c1ccc(F)cc1 (stereo unspecified),6.9 µg/mL
10,O=C(Nc1ccc(Cl)cc1)OC1CN2CCC1CC2 (stereo unspecified),40.5 µg/mL
11,O=C(NC1CCCC1)c1cc(-c2ccc(F)cc2)on1,2.1 µg/mL
12,CCOC(=O)C1CCN(C(=O)CSc2nc(N)cc(=O)[nH]2)CC1,> 51.1 µg/mL
13,O=C(CSCc1ccc(F)cc1)NCc1ccc(F)cc1,44 µg/mL
14,Cc1cc(C)nc(Nc2ccc(F)cc2)n1,> 32.6 µg/mL
15,O=C(NC1CC2CCCC(C1)N2Cc1ccccc1)c1cccc(F)c1 (stereo unspecified),45.1 µg/mL
16,CC(C)C(=O)Nc1oc(-c2ccccc2)cc1C#N,10.5 µg/mL
17,CC1(C)CC(=O)C=C(Nc2ccccc2C#N)C1.Cl,38.2 µg/mL
18,COc1ccc(OC)c(S(=O)(=O)N2CCN3CCCC3C2)c1 (stereo unspecified),> 49 µg/mL
19,Cl.Clc1cc(I)cc(Cl)c1NC1=NCCN1,> 58.9 µg/mL
20,Cc1cccc(C(=O)OCC(=O)c2ccc3c(c2)NC(=O)CO3)c1,4.5 µg/mL
21,CCOC(=O)c1ccc(CN2C(=O)c3ccccc3S2(=O)=O)cc1,0.9 µg/mL

row,SMILES,solubility kinetic
1,COc1ccccc1/C=C/C(=O)Nc1cccnc1,> 38.1 µg/mL
2,O=C(N1CCOCC1)N1CCc2ccccc21,34.8 µg/mL
3,CNC(=O)C(C)N1c2cccc3cccc(c23)S1(=O)=O (stereo unspecified),34.6 µg/mL
4,CCOC(=O)NC(=S)Nc1c(C)n(C)n(-c2ccccc2)c1=O,> 50.2 µg/mL
5,CCOc1ccc(N)cc1OC.Cl,> 30.6 µg/mL
6,O=C(CN1C(=O)c2ccccc2C1=O)NCc1ccc(C(=O)O)cc1,> 50.7 µg/mL
7,Cc1ccc(NC(=S)NCC(O)c2ccccc2)c(C)c1 (stereo unspecified),44.3 µg/mL
8,Cc1ccc(C23CCC(=O)N2C(C(=O)O)CS3)c(C)c1 (stereo unspecified),> 43.7 µg/mL
9,O=C(CN1C(=O)COc2ccc(Cl)cc21)Nc1ccccn1,17 µg/mL
10,CCOc1ccc(NC(=S)N(CCc2ccncc2)C(C)C)cc1,48.8 µg/mL
11,O=C(NCCNC(=O)c1cc(Cl)ccc1Cl)c1ccccn1,> 50.7 µg/mL
12,c1cc2c(cc1CN1CCNCC1)OCO2,31.8 µg/mL
13,COc1ccc(NS(=O)(=O)c2ccc3oc(=O)ccc3c2)cc1,> 49.7 µg/mL
14,CSc1nc(N2CCN(C)CC2)c2c(c1C#N)CC(C)(C)OC2,> 49.9 µg/mL
15,COC(=O)c1sccc1NC(=O)Nc1ccccc1C,23.6 µg/mL
16,CCCNC(=O)NS(=O)(=O)c1ccc(Cl)cc1,> 41.5 µg/mL
17,Cn1c(=O)c2ccccc2n(CC(=O)NC2CCCCC2)c1=O,8 µg/mL
18,O=C(NN1CCOCC1)c1ccccc1,> 30.9 µg/mL
19,O=C(O)C1CC(=O)N(CCc2ccc(F)cc2)C1 (stereo unspecified),> 37.7 µg/mL
